Measurements: patent US11247972B2, “Compositions and methods for treating toxoplasmosis, cryptosporidiosis, and other apicomplexan protozoan related diseases” (University of Washington through its Center for …, priority 2010, dated 2022)

Columns and labels:
[1] = molecular target: PfCDPK1 (Plasmodium falciparum (isolate 3D7), UniProt P62344); experiment: biochemical; details: read-out: PfCDPK1 (% inhibition @ 3 uM)
[2] = molecular target: PfCDPK4 (Plasmodium falciparum (isolate 3D7), UniProt Q8IBS5); experiment: biochemical; details: read-out: PfCDPK4 (% inhibition @ 3 uM)

`CC(C)n1nc(Cc2cccc3ccccc23)c2c(N)ncnc21` [Compound 3, 1-isopropyl-3-(naphthalen-1-ylmethyl)-1H-pyrazolo[3,4-d]pyrimidin-4-amine] gave an inhibition at 3 µM [1] of 78% and an inhibition at 3 µM [2] of 76%.

In the case of `Cn1nc(Cc2cccc3ccccc23)c2c(N)ncnc21` [Compound 5a, 1-methyl-3-(naphthalen-1-ylmethyl)-1H-pyrazolo[3,4-d]pyrimidin-4-amine], the inhibition at 3 µM [2] is reported as 52%.

`C#CCn1nc(Cc2cccc3ccccc23)c2c(N)ncnc21` [Compound 5b, 3-(naphthalen-1-ylmethyl)-1-(prop-2-ynyl)-1H-pyrazolo[3,4-d]pyrimidin-4-amine] gave an inhibition at 3 µM [2] of 20%.

For `NC(=O)Cn1nc(Cc2cccc3ccccc23)c2c(N)ncnc21` [Compound 5c, 2-(4-amino-3-(naphthalen-1-ylmethyl)-1H-pyrazolo[3,4-d]pyrimidin-1-yl)acetamide], the inhibition at 3 µM [1] was 45% and the inhibition at 3 µM [2] was 23%.

For `CC(C)(C)n1nc(Cc2cccc3ccccc23)c2c(N)ncnc21` [Compound 5d, 1-tert-butyl-3-(naphthalen-1-ylmethyl)-1H-pyrazolo[3,4-d]pyrimidin-4-amine], the inhibition at 3 µM [1] was 76% and the inhibition at 3 µM [2] was 86%.

Work on `Nc1ncnc2c1c(Cc1cccc3ccccc13)nn2Cc1ccccc1` [Compound 5e, 1-benzyl-3-(naphthalen-1-ylmethyl)-1H-pyrazolo[3,4-d]pyrimidin-4-amine] yielded an inhibition at 3 µM [2] of 5%.

In the case of `Nc1ncnc2c1c(Cc1cccc3ccccc13)nn2C1CCCCC1` [Compound 5f, 1-cyclohexyl-3-(naphthalen-1-ylmethyl)-1H-pyrazolo[3,4-d]pyrimidin-4-amine], the inhibition at 3 µM [2] is reported as 15%.

In the case of `Nc1ncnc2c1c(Cc1cccc3ccccc13)nn2C1CCNCC1` [Compound 5g, 3-(naphthalen-1-ylmethyl)-1-(piperidin-4-yl)-1H-pyrazolo[3,4-d]pyrimidin-4-amine], the inhibition at 3 µM [1] is reported as 56% and the inhibition at 3 µM [2] is reported as 75%.

Compound `Nc1ncnc2c1c(Cc1cccc3ccccc13)nn2CCC1CCNCC1` [Compound 5i, 3-(naphthalen-1-ylmethyl)-1-(2-(piperidin-4-yl)ethyl)-1H-pyrazolo[3,4-d]pyrimidin-4-amine] has an inhibition at 3 µM [1] of 58% and an inhibition at 3 µM [2] of 80%.

`CC(=O)N1CCC(n2nc(Cc3cccc4ccccc34)c3c(N)ncnc32)CC1` [Compound 5j, 1-(4-(4-amino-3-(naphthalen-1-ylmethyl)-1H-pyrazolo[3,4-d]pyrimidin-1-yl)piperidin-1-yl)ethanone] was tested, and the inhibition at 3 µM [2] was 48%.

In the case of `CC(=O)N1CCC(Cn2nc(Cc3cccc4ccccc34)c3c(N)ncnc32)CC1` [Compound 5k, 1-(4-((4-amino-3-(naphthalen-1-ylmethyl)-1H-pyrazolo[3,4-d]pyrimidin-1-yl)methyl)piperidin-1-yl)ethanone], the inhibition at 3 µM [1] is reported as 69% and the inhibition at 3 µM [2] is reported as 28%.

Compound `CC(=O)N1CCC(CCn2nc(Cc3cccc4ccccc34)c3c(N)ncnc32)CC1` [Compound 5l, 1-(4-(2-(4-amino-3-(naphthalen-1-ylmethyl)-1H-pyrazolo[3,4-d]pyrimidin-1-yl)ethyl)piperidin-1-yl)ethanone] has an inhibition at 3 µM [1] of 51% and an inhibition at 3 µM [2] of 41%.

With `CCN1CCC(n2nc(Cc3cccc4ccccc34)c3c(N)ncnc32)CC1` [Compound 5m, 1-(1-ethylpiperidin-4-yl)-3-(naphthalen-1-ylmethyl)-1H-pyrazolo[3,4-d]pyrimidin-4-amine] the inhibition at 3 µM [2] was 42%.

`CCN1CCC(Cn2nc(Cc3cccc4ccccc34)c3c(N)ncnc32)CC1` [Compound 5n, 1-((1-ethylpiperidin-4-yl)methyl)-3-(naphthalen-1-ylmethyl)-1H-pyrazolo[3,4-d]pyrimidin-4-amine] showed an inhibition at 3 µM [1] of 49% and an inhibition at 3 µM [2] of 27%.

`CCN1CCC(CCn2nc(Cc3cccc4ccccc34)c3c(N)ncnc32)CC1` [Compound 5o, 1-(2-(1-ethylpiperidin-4-yl)ethyl)-3-(naphthalen-1-ylmethyl)-1H-pyrazolo[3,4-d]pyrimidin-4-amine] was tested, and the inhibition at 3 µM [1] was 71% and the inhibition at 3 µM [2] was 37%.

For `CS(=O)(=O)N1CCC(n2nc(Cc3cccc4ccccc34)c3c(N)ncnc32)CC1` [Compound 5p, 1-(1-(methylsulfonyl)piperidin-4-yl)-3-(naphthalen-1-ylmethyl)-1H-pyrazolo[3,4-d]pyrimidin-4-amine], the inhibition at 3 µM [2] was 53%.

In the case of `CS(=O)(=O)N1CCC(Cn2nc(Cc3cccc4ccccc34)c3c(N)ncnc32)CC1` [Compound 5q, 1-((1-(methylsulfonyl)piperidin-4-yl)methyl)-3-(naphthalen-1-ylmethyl)-1H-pyrazolo[3,4-d]pyrimidin-4-amine], the inhibition at 3 µM [1] is reported as 78% and the inhibition at 3 µM [2] is reported as 15%.

For `CS(=O)(=O)N1CCC(CCn2nc(Cc3cccc4ccccc34)c3c(N)ncnc32)CC1` [Compound 5r, 1-(2-(1-(methylsulfonyl)piperidin-4-yl)ethyl)-3-(naphthalen-1-ylmethyl)-1H-pyrazolo[3,4-d]pyrimidin-4-amine], the inhibition at 3 µM [1] was 55% and the inhibition at 3 µM [2] was 22%.

For `CC(C)n1nc(-c2cccc(OCc3ccccc3)c2)c2c(N)ncnc21` [Compound 7aa, 3-(3-(benzyloxy)phenyl)-1-isopropyl-1H-pyrazolo[3,4-d]pyrimidin-4-amine], the inhibition at 3 µM [1] was 75% and the inhibition at 3 µM [2] was 18%.

`CC(C)c1cccc(-c2nn(C(C)C)c3ncnc(N)c23)c1` [Compound 7e, 1-isopropyl-3-(3-isopropylphenyl)-1H-pyrazolo[3,4-d]pyrimidin-4-amine] was tested, and the inhibition at 3 µM [1] was 74% and the inhibition at 3 µM [2] was 52%.

Work on `Cc1ccc(-c2nn(C(C)C)c3ncnc(N)c23)cc1C` [Compound 7h, 3-(3,4-dimethylphenyl)-1-isopropyl-1H-pyrazolo[3,4-d]pyrimidin-4-amine] yielded an inhibition at 3 µM [1] of 83% and an inhibition at 3 µM [2] of 85%.

Compound `CC(C)n1nc(-c2ccc3c(c2)CCCO3)c2c(N)ncnc21` [Compound 7w, 3-(chroman-6-yl)-1-isopropyl-1H-pyrazolo[3,4-d]pyrimidin-4-amine] has an inhibition at 3 µM [2] of 55%.

Work on `CC(C)n1nc(-c2cccc3c2sc2ccccc23)c2c(N)ncnc21` [Compound 7x, 3-(dibenzo[b,d]thiophen-4-yl)-1-isopropyl-1H-pyrazolo[3,4-d]pyrimidin-4-amine] yielded an inhibition at 3 µM [2] of 21%.

Compound `CC(C)n1nc(-c2cccc(Cc3ccccc3)c2)c2c(N)ncnc21` [Compound 7y, 3-(3-benzylphenyl)-1-isopropyl-1H-pyrazolo[3,4-d]pyrimidin-4-amine] has an inhibition at 3 µM [2] of 17%.

Compound `Nc1ncnc2c1c(Cc1cccc3ccccc13)nn2C1CCCC1` [Compound 13, 1-cyclopentyl-3-(naphthalen-1-ylmethyl)-1H-pyrazolo[3,4-d]pyrimidin-4-amine] has an inhibition at 3 µM [2] of 25%.

In the case of `CC(C)n1nc(Cc2ccc3ccccc3c2)c2c(N)ncnc21` [Compound 14, 1-isopropyl-3-(naphthalen-2-ylmethyl)-1H-pyrazolo[3,4-d]pyrimidin-4-amine], the inhibition at 3 µM [2] is reported as 13%.

`Nc1ncnc2c1c(Cc1cccc3ccccc13)nn2C1CCOCC1` [Compound 15, 3-(naphthalen-1-ylmethyl)-1-(tetrahydro-2H-pyran-4-yl)-1H-pyrazolo[3,4-d]pyrimidin-4-amine] gave an inhibition at 3 µM [2] of 11%.

For `CC(C)n1nc(-c2cccnc2)c2c(N)ncnc21` [Compound 16, 1-isopropyl-3-(pyridin-3-yl)-1H-pyrazolo[3,4-d]pyrimidin-4-amine], the inhibition at 3 µM [2] was 13%.

`CC(C)n1nc(-c2cncnc2)c2c(N)ncnc21` [Compound 18, 1-isopropyl-3-(pyrimidin-5-yl)-1H-pyrazolo[3,4-d]pyrimidin-4-amine] gave an inhibition at 3 µM [2] of 4%.

`CC(C)n1nc(-c2ccnc(Cl)c2)c2c(N)ncnc21` [Compound 19, 3-(2-chloropyridin-4-yl)-1-isopropyl-1H-pyrazolo[3,4-d]pyrimidin-4-amine] was tested, and the inhibition at 3 µM [2] was 14%.

With `CC(C)n1nc(-c2ccc3c(ccn3C)c2)c2c(N)ncnc21` [Compound 20, 1-isopropyl-3-(1-methyl-1H-indol-5-yl)-1H-pyrazolo[3,4-d]pyrimidin-4-amine] the inhibition at 3 µM [2] was 93%.

For `CC(C)n1nc(-c2cc3ccccc3[nH]2)c2c(N)ncnc21` [Compound 24, 3-(1H-indol-2-yl)-1-isopropyl-1H-pyrazolo[3,4-d]pyrimidin-4-amine], the inhibition at 3 µM [2] was 93%.

For `COc1ccc2[nH]c(-c3nn(C(C)C)c4ncnc(N)c34)cc2c1` [Compound 27, 1-isopropyl-3-(5-methoxy-1H-indol-2-yl)-1H-pyrazolo[3,4-d]pyrimidin-4-amine], the inhibition at 3 µM [2] was 44%.

`CC(C)Oc1ccc2cc(-c3nn(CC4CCNCC4)c4ncnc(N)c34)ccc2c1` [Compound 32, 3-(6-isopropoxynaphthalen-2-yl)-1-(piperidin-4-ylmethyl)-1H-pyrazolo[3,4-d]pyrimidin-4-amine] showed an inhibition at 3 µM [2] of 96%.

Compound `CCCOc1ccc2cc(-c3nn(CC4CCNCC4)c4ncnc(N)c34)ccc2c1` [Compound 33, 1-(piperidin-4-ylmethyl)-3-(6-propoxynaphthalen-2-yl)-1H-pyrazolo[3,4-d]pyrimidin-4-amine] has an inhibition at 3 µM [2] of 98%.

`CCCCOc1ccc2cc(-c3nn(CC4CCNCC4)c4ncnc(N)c34)ccc2c1` [Compound 35, 3-(6-butoxynaphthalen-2-yl)-1-(piperidin-4-ylmethyl)-1H-pyrazolo[3,4-d]pyrimidin-4-amine] showed an inhibition at 3 µM [2] of 99%.

Work on `C=CCOc1ccc2cc(-c3nn(CC4CCNCC4)c4ncnc(N)c34)ccc2c1` [Compound 36, 3-(6-(allyloxy)naphthalen-2-yl)-1-(piperidin-4-ylmethyl)-1H-pyrazolo[3,4-d]pyrimidin-4-amine] yielded an inhibition at 3 µM [2] of 99%.

With `Nc1ncnc2c1c(-c1ccc3cc(OCc4ccccc4Cl)ccc3c1)nn2CC1CCNCC1` [Compound 37, 3-(6-(2-chlorobenzyloxy)naphthalen-2-yl)-1-(piperidin-4-ylmethyl)-1H-pyrazolo[3,4-d]pyrimidin-4-amine] the inhibition at 3 µM [2] was 96%.

In the case of `Nc1ncnc2c1c(-c1ccc3cc(OCc4cccc(Cl)c4)ccc3c1)nn2CC1CCNCC1` [Compound 38, 3-(6-(3-chlorobenzyloxy)naphthalen-2-yl)-1-(piperidin-4-ylmethyl)-1H-pyrazolo[3,4-d]pyrimidin-4-amine], the inhibition at 3 µM [2] is reported as 96%.
